Measurements from patent US8148372B2 (AstraZeneca AB, priority 2008, dated 2012).
≈ marks a conversion by molar mass, not a printed value.

Experiments:
human mGluR2 = target: T1, human mGluR2 (Homo sapiens, UniProt Q14416); assay: [35S]-GTPγS binding assay, membranes from CHO cells stably expressing human mGluR2; format: biochemical; details: for Emax: 0.5 h, Emax relative to the maximum glutamate effect, 1 μM glutamate, read-out: Hu GTPgS Median Top Effect; for EC50: allosteric activator activity in presence of 1 μM glutamate, CHO membranes, human mGluR2, read-out: Hu GTPgS EC50
T1 construct: expressed in transfected cells; host or cells: CHO cells, stably transfected; membranes
Method: A [^35S]-GTPγS binding assay was used to functionally assay mGluR2 receptor activation. The allosteric activator activity of compounds at the human mGluR2 receptor were measured using a [^35S]-GTPγS binding assay with membranes prepared from CHO cells that stably express the human mGluR2. The assay is based upon the principle that agonists bind to G-protein coupled receptors to stimulate GDP-GTP exchange at the G-protein. Since [^35S]-GTPγS is a non-hydrolyzable GTP analog, it can be used to provide an index of GDP-GTP exchange and, thus, receptor activation. The GTPγS binding assay therefore provides a quantitative measure of receptor activation.
Membranes were prepared from CHO cells stably transfected with human mGluR2. Membranes (30 μg protein) were incubated with test compound (3 nM to 300 μM) for 15 minutes at room temperature prior to the addition of 1 μM glutamate, and incubated for 30 min at 30° C. in 500 μl assay buffer (20 mM HEPES, 100 mM NaCl, 10 mM MgCl2), containing 30 μM GDP and 0.1 nM [^35S]-GTPγS (1250 Ci/mmol). Reactions were carried out in triplicate in 2 ml polypropylene 96-well plates. Reactions were terminated by vacuum filtration using a Packard 96-well harvester and Unifilter-96, GF/B filter microplates. The filter plates were washed 4×1.5 ml with ice-cold wash buffer (10 mM sodium phosphate buffer, pH 7.4). The filter plates were dried and 35 μl of scintillation fluid (Microscint 20) was added to each well. The amount of radioactivity bound was determined by counting plates on the Packard TopCount. Data was analyzed using GraphPad Prism, and EC50 and Emax values (relative to the maximum glutamate effect) were calculated using non-linear regression.

[1] = Solubility in pH 7.4 phosphate buffer; format: physicochemical; details: aqueous buffer, thermodynamic from solid, equilibration 24 h at 25° C., HPLC-UV and LC-MSMS
Method: Solubility was determined in pH 7.4 phosphate buffer after equilibration for 24 h at 25° C. and HPLC-UV and LC-MSMS were used for quantitation.

hERG ion channel = hERG ion channel (Homo sapiens, UniProt Q12809); assay: hERG activity (process of Bridgland-Taylor et al.); format: cell-based
Method: hERG activity was assessed using the process described by Bridgland-Taylor, M. H., et al, J. Pharm. Tox. Methods 54 (2006) 189-199.

Sequence of hERG ion channel (Q12809 whole entry): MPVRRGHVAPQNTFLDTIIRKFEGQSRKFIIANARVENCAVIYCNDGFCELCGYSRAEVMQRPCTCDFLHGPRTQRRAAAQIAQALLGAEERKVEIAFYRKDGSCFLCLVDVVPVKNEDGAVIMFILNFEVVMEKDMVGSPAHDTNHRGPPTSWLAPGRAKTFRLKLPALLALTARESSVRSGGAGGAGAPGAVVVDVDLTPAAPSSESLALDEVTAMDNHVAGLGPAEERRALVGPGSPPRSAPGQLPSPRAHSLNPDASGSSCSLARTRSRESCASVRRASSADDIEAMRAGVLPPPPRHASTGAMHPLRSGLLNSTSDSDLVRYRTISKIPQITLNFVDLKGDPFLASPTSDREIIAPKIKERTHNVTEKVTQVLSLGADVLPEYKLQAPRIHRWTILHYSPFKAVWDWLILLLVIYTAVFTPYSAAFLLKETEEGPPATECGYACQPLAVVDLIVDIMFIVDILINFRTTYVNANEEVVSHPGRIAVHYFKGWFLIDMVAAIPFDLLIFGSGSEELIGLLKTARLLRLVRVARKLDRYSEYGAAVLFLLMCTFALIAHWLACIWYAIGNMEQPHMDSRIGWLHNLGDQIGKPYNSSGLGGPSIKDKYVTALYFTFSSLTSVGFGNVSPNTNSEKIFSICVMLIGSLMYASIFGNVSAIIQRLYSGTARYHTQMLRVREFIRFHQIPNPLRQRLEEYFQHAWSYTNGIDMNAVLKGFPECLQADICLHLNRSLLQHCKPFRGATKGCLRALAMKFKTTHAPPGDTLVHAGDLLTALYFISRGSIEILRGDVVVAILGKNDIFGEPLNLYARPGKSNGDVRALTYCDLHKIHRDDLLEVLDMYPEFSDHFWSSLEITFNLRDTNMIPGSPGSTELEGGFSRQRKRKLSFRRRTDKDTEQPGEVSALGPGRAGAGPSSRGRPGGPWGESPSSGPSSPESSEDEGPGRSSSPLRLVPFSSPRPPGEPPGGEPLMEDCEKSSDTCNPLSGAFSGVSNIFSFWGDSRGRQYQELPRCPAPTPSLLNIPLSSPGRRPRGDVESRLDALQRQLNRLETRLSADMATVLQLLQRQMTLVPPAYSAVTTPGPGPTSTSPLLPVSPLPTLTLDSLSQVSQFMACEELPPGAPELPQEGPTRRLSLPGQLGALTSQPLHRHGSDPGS
T1 sequence (Q14416 19-872): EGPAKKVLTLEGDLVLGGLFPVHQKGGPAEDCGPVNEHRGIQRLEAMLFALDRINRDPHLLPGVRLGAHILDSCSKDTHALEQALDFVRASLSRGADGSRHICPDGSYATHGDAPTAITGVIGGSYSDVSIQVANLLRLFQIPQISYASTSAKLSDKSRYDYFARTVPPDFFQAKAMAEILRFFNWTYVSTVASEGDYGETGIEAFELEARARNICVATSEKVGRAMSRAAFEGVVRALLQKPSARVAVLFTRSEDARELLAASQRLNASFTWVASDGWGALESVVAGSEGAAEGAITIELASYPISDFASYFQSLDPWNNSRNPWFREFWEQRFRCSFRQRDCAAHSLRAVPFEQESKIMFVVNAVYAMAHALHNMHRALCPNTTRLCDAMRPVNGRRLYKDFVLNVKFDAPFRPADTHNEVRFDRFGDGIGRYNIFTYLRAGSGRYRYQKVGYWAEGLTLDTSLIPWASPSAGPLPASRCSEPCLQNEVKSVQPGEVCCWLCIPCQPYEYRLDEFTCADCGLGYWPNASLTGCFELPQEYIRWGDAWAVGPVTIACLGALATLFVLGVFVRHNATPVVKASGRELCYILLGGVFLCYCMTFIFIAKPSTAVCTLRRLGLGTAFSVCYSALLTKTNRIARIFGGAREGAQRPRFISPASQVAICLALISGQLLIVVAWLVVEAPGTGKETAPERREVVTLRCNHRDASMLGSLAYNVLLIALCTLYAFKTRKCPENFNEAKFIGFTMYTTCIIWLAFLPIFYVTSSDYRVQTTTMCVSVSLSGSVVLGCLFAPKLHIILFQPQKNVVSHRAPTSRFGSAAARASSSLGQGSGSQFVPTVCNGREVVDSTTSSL

Emax (human mGluR2) [%]	EC50 (human mGluR2) [nM]	solubility at 24 h [1] [µM]	melting point [°C]	Structure (SMILES)	IC50 (hERG ion channel) [nM]
127	64	33.4 (≈ 12.5 µg/mL)	143.5	C[C@@H](C1CC1)N1Cc2cc(-c3cc(C(=O)N(C)C)no3)cc(Cl)c2C1=O [Example 1, 5-(7-chloro-2-((S)-1-cyclopropylethyl)-1-oxo-2,3-dihydro-1H-isoindolin-5-yl)-N,N-dimethylisoxazole-3-carboxamide]	> 33000
114	600	6.82 (≈ 2.45 µg/mL)	212.3	CNC(=O)c1cc(-c2cc(Cl)c3c(c2)CN([C@@H](C)C2CC2)C3=O)on1 [Example 2, 5-(7-chloro-2-((S)-1-cyclopropylethyl)-1-oxo-2,3-dihydro-1H-isoindolin-5-yl)-N-methylisoxazole-3-carboxamide]	21000
117	214	21.4 (≈ 6.84 µg/mL)	–	CC(C)N1Cc2cc(-c3cc(C(N)=O)no3)cc(Cl)c2C1=O [Example 3]	> 33000
130	150	9.53 (≈ 3.1 µg/mL)	–	Cc1cc(-c2cc(C(N)=O)no2)cc2c1C(=O)N([C@@H](C)C1CC1)C2 [Example 4, 5-[2-((S)-1-Cyclopropyl-ethyl)-7-methyl-1-oxo-2,3-dihydro-1H-isoindol-5-yl]-isoxazole-3-carboxylic acid amide]	> 33000
67	425	19.2 (≈ 6.29 µg/mL)	–	Cc1cc(-c2cc(C(=O)N(C)C)no2)cc2c1C(=O)N(C(C)C)C2 [Example 5, 5-(2-Isopropyl-7-methyl-1-oxo-2,3-dihydro-1H-isoindol-5-yl)-isoxazole-3-carboxylic acid dimethylamide]	> 33000
110	510	17.5 (≈ 5.94 µg/mL)	–	CNC(=O)c1cc(-c2cc(C)c3c(c2)CN([C@@H](C)C2CC2)C3=O)on1 [Example 6, 5-[2-((S)-1-Cyclopropyl-ethyl)-7-methyl-1-oxo-2,3-dihydro-1H-isoindol-5-yl]-isoxazole-3-carboxylic acid methylamide]	23000
139	230	16.6 (≈ 5.74 µg/mL)	–	C[C@@H](C1CC1)N1Cc2cc(-c3cc(C(N)=O)no3)cc(Cl)c2C1=O [Example 7, 5-[7-Chloro-2-((S)-1-cyclopropyl-ethyl)-1-oxo-2,3-dihydro-1H-isoindol-5-yl]-isoxazole-3-carboxylic acid amide]	> 33000
123	115	31.1 (≈ 11 µg/mL)	–	Cc1cc(-c2cc(C(=O)N(C)C)no2)cc2c1C(=O)N([C@@H](C)C1CC1)C2 [Example 8, 5-[2-((S)-1-Cyclopropyl-ethyl)-7-methyl-1-oxo-2,3-dihydro-1H-isoindol-5-yl]-isoxazole-3-carboxylic acid dimethylamide]	> 33000
101	37	3.57 (≈ 1.33 µg/mL)	–	CC(C)N1Cc2cc(-c3cc(C(=O)N4CCCC4)no3)cc(Cl)c2C1=O [Example 9, 7-Chloro-2-isopropyl-5-[3-(pyrrolidine-1-carbonyl)-isoxazol-5-yl]-2,3-dihydro-isoindol-1-one]	> 33000
103	618	54.1 (≈ 20.4 µg/mL)	–	CC(C)N1Cc2cc(-c3cc(C(=O)N(C)CCO)no3)cc(Cl)c2C1=O [Example 10, 5-(7-Chloro-2-isopropyl-1-oxo-2,3-dihydro-1H-isoindol-5-yl)-isoxazole-3-carboxylic acid (2-hydroxy-ethyl)-methyl-amide]	> 33000
114	66	4.35 (≈ 1.66 µg/mL)	–	Cc1cc(-c2cc(C(=O)N(C)C)no2)cc2c1C(=O)N([C@@H](C)C(F)(F)F)C2 [Example 11, 5-[7-M ethyl-1-oxo-2-((S)-2,2,2-trifluoro-1-methyl-ethyl)-2,3-dihydro-1H-isoindol-5-yl]-isoxazole-3-carboxylic acid dimethylamide]	> 33000
100	36	11.2 (≈ 4.27 µg/mL)	–	Cc1cc(-c2cc(C(=O)N(C)C(C)C)no2)cc2c1C(=O)N([C@@H](C)C1CC1)C2 [Example 12, 5-[2-((S)-1-Cyclopropyl-ethyl)-7-methyl-1-oxo-2,3-dihydro-1H-isoindol-5-yl]-isoxazole-3-carboxylic acid isopropyl-methyl-amide]	> 33000
78	479	153 (≈ 58.7 µg/mL)	–	Cc1cc(-c2cc(C(=O)N(C)CCO)no2)cc2c1C(=O)N([C@@H](C)C1CC1)C2 [Example 13, 5-[2-((S)-1-Cyclopropyl-ethyl)-7-methyl-1-oxo-2,3-dihydro-1H-isoindol-5-yl]-isoxazole-3-carboxylic acid (2-hydroxy-ethyl)-methyl-amide]	> 33000
97	60	3.53 (≈ 1.37 µg/mL)	–	CC(C)N1Cc2cc(-c3cc(C(=O)NC4CCCC4)no3)cc(Cl)c2C1=O [Example 14, 5-(7-Chloro-2-isopropyl-1-oxo-2,3-dihydro-1H-isoindol-5-yl)-isoxazole-3-carboxylic acid cyclopentylamide]	19000
100	530	66.3 (≈ 25.8 µg/mL)	–	CC(C)N1Cc2cc(-c3cc(C(=O)N4CCOCC4)no3)cc(Cl)c2C1=O [Example 15, 7-Chloro-2-isopropyl-5-[3-(morpholine-4-carbonyl)-isoxazol-5-yl]-2,3-dihydro-isoindol-1-one]	> 33000
79	664	435 (≈ 172 µg/mL)	–	Cc1cc(-c2cc(C(=O)N3CCNCC3)no2)cc2c1C(=O)N([C@@H](C)C1CC1)C2 [Example 16, 2-((S)-1-Cyclopropyl-ethyl)-7-methyl-5-[3-(piperazine-1-carbonyl)-isoxazol-5-yl]-2,3-dihydro-isoindol-1-one]	> 33000
139	84	15.5 (≈ 6.23 µg/mL)	–	C[C@H](N1Cc2cc(-c3cc(C(=O)N(C)C)no3)cc(Cl)c2C1=O)C(F)(F)F [Example 17, 5-[7-Chloro-1-oxo-2-((S)-2,2,2-trifluoro-1-methyl-ethyl)-2,3-dihydro-1H-isoindol-5-yl]-isoxazole-3-carboxylic acid dimethylamide]	> 33000
109	56	4.65 (≈ 1.87 µg/mL)	–	CC(C)N(C)C(=O)c1cc(-c2cc(Cl)c3c(c2)CN([C@@H](C)C2CC2)C3=O)on1 [Example 18, 5-[7-Chloro-2-((S)-1-cyclopropyl-ethyl)-1-oxo-2,3-dihydro-1H-isoindol-5-yl]-isoxazole-3-carboxylic acid isopropyl-methyl-amide]	> 33000
141	443	273 (≈ 110 µg/mL)	–	C[C@@H](C1CC1)N1Cc2cc(-c3cc(C(=O)N(C)CCO)no3)cc(Cl)c2C1=O [Example 19, 5-[7-Chloro-2-((S)-1-cyclopropyl-ethyl)-1-oxo-2,3-dihydro-1H-isoindol-5-yl]-isoxazole-3-carboxylic acid (2-hydroxy-ethyl)-methyl-amide]	> 33000
122	85	5.74 (≈ 2.39 µg/mL)	–	C[C@@H](C1CC1)N1Cc2cc(-c3cc(C(=O)N4CCOCC4)no3)cc(Cl)c2C1=O [Example 20, 7-Chloro-2-((S)-1-cyclopropyl-ethyl)-5-[3-(morpholine-4-carbonyl)-isoxazol-5-yl]-2,3-dihydro-isoindol-1-one]	> 33000
106	514	9.32 (≈ 4.14 µg/mL)	–	C[C@H](N1Cc2cc(-c3cc(C(=O)N4CCOCC4)no3)cc(Cl)c2C1=O)C(F)(F)F [Example 21, 7-Chloro-5-[3-(morpholine-4-carbonyl)-isoxazol-5-yl]-2-((S)-2,2,2-trifluoro-1-methyl-ethyl)-2,3-dihydro-isoindol-1-one]	> 33000
